Measurements as given in patent US6878722B2, “Substituted cycloalkyl P1′ hepatitis C virus inhibitors” (Bristol-Myers Squibb Company, priority 2002, dated 2005).
pIC50: −log10 of the molar value.

How the values were obtained:
Type in all cases: biochemical
[1] = target: T1, HCV NS3/4A protease complex (BMS strain, genotype 1a) (Hepatitis C virus genotype 1a, UniProt P27958, C1454S); experiment: Recombinant HCV NS3/4A protease complex FRET peptide assay, BMS strain
T1 construct: DNA encoding the recombinant HCV NS3/4A protease complex (amino acids 1027 to 1711) for these strains; inferred from the pET21b vector and Ni-NTA purification; made in house; host or cells: Escherichia coli BL21 (DE3), pET21b
T1 sequence (P27958 1658-1714, looked up, stated change not applied): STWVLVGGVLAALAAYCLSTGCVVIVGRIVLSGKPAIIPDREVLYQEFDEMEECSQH
T1 sequence (P27958 1027-1657, looked up, stated change not applied): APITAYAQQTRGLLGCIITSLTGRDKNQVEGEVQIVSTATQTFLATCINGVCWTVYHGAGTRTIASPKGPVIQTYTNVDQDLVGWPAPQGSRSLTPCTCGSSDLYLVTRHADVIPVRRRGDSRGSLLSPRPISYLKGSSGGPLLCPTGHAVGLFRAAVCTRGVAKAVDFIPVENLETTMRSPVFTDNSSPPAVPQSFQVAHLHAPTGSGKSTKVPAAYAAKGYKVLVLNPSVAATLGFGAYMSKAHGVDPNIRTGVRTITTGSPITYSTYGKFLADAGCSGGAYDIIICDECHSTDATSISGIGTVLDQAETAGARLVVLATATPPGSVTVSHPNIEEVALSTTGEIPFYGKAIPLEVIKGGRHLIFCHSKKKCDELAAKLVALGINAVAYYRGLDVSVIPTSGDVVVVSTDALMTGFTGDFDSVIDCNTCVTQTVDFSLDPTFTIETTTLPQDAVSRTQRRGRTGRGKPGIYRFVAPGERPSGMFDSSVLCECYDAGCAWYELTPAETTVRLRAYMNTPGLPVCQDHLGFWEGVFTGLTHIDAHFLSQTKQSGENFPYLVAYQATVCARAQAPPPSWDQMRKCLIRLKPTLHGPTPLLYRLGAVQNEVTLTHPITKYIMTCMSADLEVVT
Method in brief: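 Recombinant NS3/4A complex (aa 1027–1711) with C-terminal three-lysine tail, C1711G and C1454S, expressed in E. coli BL21(DE3) and purified by Ni-NTA then Superdex-S200. Inhibition of the complex from each strain measured in vitro by FRET peptide cleavage.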

[2] = target: T2, HCV NS3/4A protease complex (H77C strain, 1a genotype) (Hepatitis C virus genotype 1a, UniProt P27958, C1454S); experiment: Recombinant HCV NS3/4A protease complex FRET peptide assay, H77C strain
T2 construct: DNA encoding the recombinant HCV NS3/4A protease complex (amino acids 1027 to 1711) for these strains; inferred from the pET21b vector and Ni-NTA purification; made in house; host or cells: Escherichia coli BL21 (DE3), pET21b
T2 sequence (P27958 1027-1657 C1454S): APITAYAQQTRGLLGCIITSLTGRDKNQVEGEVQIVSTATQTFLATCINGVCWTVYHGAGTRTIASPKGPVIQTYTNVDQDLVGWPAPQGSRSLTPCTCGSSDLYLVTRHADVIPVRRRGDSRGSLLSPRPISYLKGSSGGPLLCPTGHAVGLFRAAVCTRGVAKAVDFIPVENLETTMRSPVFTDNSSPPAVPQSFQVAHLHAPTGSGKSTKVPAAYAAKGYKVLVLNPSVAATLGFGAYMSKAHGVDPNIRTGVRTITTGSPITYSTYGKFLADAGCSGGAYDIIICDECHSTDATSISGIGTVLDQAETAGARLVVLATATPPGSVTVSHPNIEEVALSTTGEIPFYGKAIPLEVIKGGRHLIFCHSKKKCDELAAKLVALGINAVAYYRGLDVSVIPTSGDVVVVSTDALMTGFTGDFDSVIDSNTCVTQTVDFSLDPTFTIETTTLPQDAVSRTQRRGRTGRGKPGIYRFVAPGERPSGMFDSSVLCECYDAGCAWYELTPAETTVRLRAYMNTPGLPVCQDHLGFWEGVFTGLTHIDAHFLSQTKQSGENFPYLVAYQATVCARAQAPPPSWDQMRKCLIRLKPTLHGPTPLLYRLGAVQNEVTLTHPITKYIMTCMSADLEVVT
T2 sequence (P27958 1658-1714 partner, looked up, stated change not applied): as the sequence (P27958 1658-1714, looked up, stated change not applied) above
From the text: (§1) The purpose of this in vitro assay was to measure the inhibition of HCV NS3 protease complexes, derived from the BMS, H77C or J416S strains, as described below, by compounds of the present invention.
(§2) Serum from an HCV-infected patient was obtained from Dr. T. Wright, San Francisco Hospital. An engineered full-length cDNA (compliment deoxyribonucleic acid) template of the HCV genome (BMS strain) was constructed from DNA fragments obtained by reverse transcription-PCR (RT-PCR) of serum RNA (ribonucleic acid) and using primers selected on the basis of homology between other genotype 1a strains. […] The infectious clones, H77C (1a genotype) and J4L6S (1b genotype) were obtained from R. Purcell (NIH) and the sequences are published in Genbank (AAB67036, see Yanagi,M., Purcell,R. H., Emerson,S. U. and Bukh,J. Proc. Natl. Acad. Sci. U.S.A. 94(16),8738-8743 (1997); AF054247, see Yanagi,M., St Claire,M., Shapiro,M., Emerson,S. U., Purcell,R. H. and Bukh,J, Virology 244 (1), 161-172. (1998)).
(§3) The BMS, H77C and J4L6S strains were used for production of recombinant NS3/4A protease complexes. DNA encoding the recombinant HCV NS3/4A protease complex (amino acids 1027 to 1711) for these strains were manipulated as described by P. Gallinari et al. (see Gallinari P, Paolini C, Brennan D, Nardi C, Steinkuhler C, De Francesco R. Biochemistry. 38(17):5620-32, (1999)). […]

[3] = target: T3, HCV NS3/4A protease complex (J4L6S strain, 1b genotype) (Hepatitis C virus genotype 1b, UniProt O92972, C1454S/C1711G); experiment: Recombinant HCV NS3/4A protease complex FRET peptide assay, J4L6S strain
T3 construct: DNA encoding the recombinant HCV NS3/4A protease complex (amino acids 1027 to 1711) for these strains; inferred from the pET21b vector and Ni-NTA purification; made in house; host or cells: Escherichia coli BL21 (DE3), pET21b
T3 sequence (O92972 1027-1711 C1454S/C1711G, one chain of several): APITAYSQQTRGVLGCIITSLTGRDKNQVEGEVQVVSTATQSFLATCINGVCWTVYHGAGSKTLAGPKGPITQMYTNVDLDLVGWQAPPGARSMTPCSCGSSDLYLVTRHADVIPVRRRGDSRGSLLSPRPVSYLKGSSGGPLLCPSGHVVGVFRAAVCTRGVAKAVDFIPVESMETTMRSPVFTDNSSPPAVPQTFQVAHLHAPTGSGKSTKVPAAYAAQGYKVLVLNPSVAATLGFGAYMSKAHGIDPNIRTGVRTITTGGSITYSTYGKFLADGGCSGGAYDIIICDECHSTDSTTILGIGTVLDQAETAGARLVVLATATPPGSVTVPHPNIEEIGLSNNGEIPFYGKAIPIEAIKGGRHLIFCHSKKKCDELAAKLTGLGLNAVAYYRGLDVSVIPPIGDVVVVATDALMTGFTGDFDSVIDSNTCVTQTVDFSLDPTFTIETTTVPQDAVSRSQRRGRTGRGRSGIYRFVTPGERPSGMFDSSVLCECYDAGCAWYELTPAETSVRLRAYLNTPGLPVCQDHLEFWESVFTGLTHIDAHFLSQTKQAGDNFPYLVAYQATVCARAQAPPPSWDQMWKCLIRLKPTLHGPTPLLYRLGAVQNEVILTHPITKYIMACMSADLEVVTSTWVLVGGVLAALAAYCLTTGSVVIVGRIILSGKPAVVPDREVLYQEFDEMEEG
From the text: as §1, §2, §3

[4] = target: T4, porcine pancreatic elastase (PPE) (Sus scrofa, UniProt P00772); experiment: Specificity assay, porcine pancreatic elastase; conditions: 2 hr pre-incubation
T4 construct: purchased Sigma
T4 sequence (P00772 27-266): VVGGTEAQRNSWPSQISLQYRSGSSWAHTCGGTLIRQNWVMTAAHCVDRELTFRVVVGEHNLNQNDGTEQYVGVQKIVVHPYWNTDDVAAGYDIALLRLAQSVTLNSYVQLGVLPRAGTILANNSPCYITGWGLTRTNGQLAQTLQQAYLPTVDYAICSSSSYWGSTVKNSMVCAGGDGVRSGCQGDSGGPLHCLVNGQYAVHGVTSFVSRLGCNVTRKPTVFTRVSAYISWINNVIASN
Experimental: (§4) The specificities of compounds of the present invention were determined against a variety of serine proteases: human sputum elastase (HS), porcine pancreatic elastase (PPE) and human pancreatic chymotrypsin and one cysteine protease: human liver cathepsin B. In all cases a 96-well plate format protocol using colorimetric p-nitroaniline (pNA) substrate specific for each enzyme was used as described previously (Patent WO 00/09543) with some modifications to the serine protease assays. All enzymes were purchased from Sigma while the substrates were from Bachem.
(§5) Each assay included a 2 hr enzyme-inhibitor pre-incubation at room temperature followed by addition of substrate and hydrolysis to ˜30% conversion as measured on a Spectramax Pro microplate reader. Compound concentrations varied from 100 to 0.4 μM depending on their potency. […]
(§6) The percentage of inhibition was calculated using the formula: [1−((UVinh−UVblank)/(UVctl−UVblank))]×100 […]

[5] = system: human pancreatic chymotrypsin; experiment: Specificity assay, chymotrypsin; conditions: 2 hr pre-incubation
Experimental: as §4, §5, §6

human liver cathepsin B = target: T5, human liver cathepsin B (Homo sapiens, UniProt P07858); experiment: Specificity assay, cathepsin B; conditions: 2 hr pre-incubation
T5 construct: purchased Sigma
Experimental: as §4, §5, §6

Compound: C=CC1C[C@]1(NC(=O)[C@@H]1C[C@@H](Oc2cc(-c3ccccc3)nc3cc(OC)ccc23)CN1C(=O)[C@@H](NC(=O)OC(C)(C)C)C(C)(C)C)C(=O)NS(=O)(=O)C1(C)CC1 (stereo in doubt) [Compound 1, (1-{4-(7-Methoxy-2-phenylquinolin-4-yloxy)-2-[1-(1-methylcyclopropanesulfonylaminocarbonyl)-2-vinylcyclopropylcarbamoyl]pyrrolidine-1-carbonyl}-2,2-dimethylpropyl)carbamic acid tert-butyl ester]
- pIC50 ([1]; IC50 against the NS3/4A BMS strain in the enzyme assay, BMS strain): 8.74
- pIC50 ([1]; IC50 range, NS3/4A BMS Strain): > 7.30
- pIC50 [2]: 8.92
- pIC50 [3]: 8.96
- pIC50 [4]: < 4.00
- pIC50 [5]: < 4.00
- pIC50 (human liver cathepsin B): < 4.00
